Among the test systems are LOX IMVI melanoma; SW-620 colon; ACHN renal; SF-268 CNS; OVCAR-5 ovarian; SNB-19 CNS; COLO 205 colon; MOLT-4 leukemia; K-562 leukemia; M14 melanoma.
Holding throughout (assay): inhibition of tumour cell growth, NCI panel, 48 h

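Tested at 5 concentrations; 48 h exposure; 96-well plates; endpoints linearly interpolated, else capped at highest concentration. GI50: concentration for 50% inhibition of growth. TGI is the concentration that stops growth completely.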

For `OCC1OC(N2CCN(C3OC(CO)C(O)C(O)C3O)CC2)C(O)C(O)C1O` (stereo unspecified), the TGI in the experiment with LOX IMVI melanoma, in the experiment on SW-620 colon, with ACHN renal, with SF-268 CNS, in the experiment on OVCAR-5 ovarian and in the experiment on SNB-19 CNS was > 100 µM in each case. Further, the TGI in the experiment with COLO 205 colon, in the experiment on MOLT-4 leukemia, with K-562 leukemia and in the experiment on M14 melanoma was > 100 µM each time.
With `O=S(=O)(O)c1ccc([Se][Se]c2ccc(S(=O)(=O)O)cc2)cc1`, the TGI with LOX IMVI melanoma, with SW-620 colon, in the experiment on ACHN renal, with SF-268 CNS, in the experiment with OVCAR-5 ovarian and with SNB-19 CNS was > 100 µM each time. For the same molecule, the TGI in the experiment on COLO 205 colon, with MOLT-4 leukemia, with K-562 leukemia and in the experiment with M14 melanoma was > 100 µM in each case.
In the case of `C[C@H]1O[C@@H](O[C@H]2[C@@H](O)C[C@H](O[C@H]3[C@@H](O)C[C@H](O[C@H]4CC[C@]5(C)C6CC[C@]7(C)[C@@H](C8=CC(=O)OC8)CC[C@]7(O)C6CC[C@@H]5C4)O[C@@H]3C)O[C@@H]2C)C[C@H](O)[C@@H]1O` (stereo partly specified), the GI50 with LOX IMVI melanoma is 0.0156 µM; with SW-620 colon, 0.0178 µM; in the experiment with ACHN renal, 0.0126 µM; with SF-268 CNS, 0.0159 µM; in the experiment with OVCAR-5 ovarian, 0.0383 µM; in the experiment on SNB-19 CNS, 0.03 µM. The GI50 is 0.0309 µM in the experiment with COLO 205 colon, 0.0113 µM in the experiment with MOLT-4 leukemia, 0.0159 µM in the experiment on K-562 leukemia and 0.0328 µM in the experiment on M14 melanoma. In addition, the TGI in the experiment with LOX IMVI melanoma worked out at 0.0549 µM; with SW-620 colon, 0.0678 µM; in the experiment with ACHN renal, 0.0391 µM; with SF-268 CNS, 0.0578 µM; with OVCAR-5 ovarian it was 0.111 µM; in the experiment on SNB-19 CNS it was 0.0948 µM. Further, the TGI with COLO 205 colon was 0.102 µM; in the experiment on MOLT-4 leukemia, 0.0341 µM; in the experiment with K-562 leukemia it was 0.0799 µM; in the experiment with M14 melanoma it was 0.0986 µM.
As for `COc1cc(-c2cc(-c3ccc(Nc4nc(Nc5ccc(Cl)cc5)nc(Nc5ccc(Cl)cc5)n4)cc3)no2)cc(OC)c1OC`, the GI50 was 11.4 µM with LOX IMVI melanoma; 19.9 µM in the experiment on SW-620 colon; 14.9 µM in the experiment with ACHN renal; 6.05 µM with SF-268 CNS; 27.3 µM in the experiment on OVCAR-5 ovarian; 26.8 µM with SNB-19 CNS. Moreover, the GI50 was 2.26 µM in the experiment on COLO 205 colon, 1.23 µM in the experiment with MOLT-4 leukemia, 1.98 µM in the experiment on K-562 leukemia and 7.11 µM in the experiment with M14 melanoma. For the same molecule, the TGI in the experiment with LOX IMVI melanoma, in the experiment with SW-620 colon, in the experiment with ACHN renal, in the experiment on SF-268 CNS, in the experiment on OVCAR-5 ovarian and in the experiment with SNB-19 CNS was > 100 µM throughout. In addition, the TGI was 21.3 µM in the experiment on COLO 205 colon, 23.7 µM in the experiment with MOLT-4 leukemia, 19.4 µM with K-562 leukemia and > 100 µM in the experiment on M14 melanoma.
Consider `CC(=O)Nc1ccc2c(c1)[nH]c(=O)c1cc(NC(C)=O)ccc12`, for which the GI50 in the experiment with LOX IMVI melanoma, in the experiment with SW-620 colon, with ACHN renal, in the experiment on SF-268 CNS, with OVCAR-5 ovarian and in the experiment on SNB-19 CNS was > 100 µM in each case. Further, the GI50 with COLO 205 colon was > 100 µM; with MOLT-4 leukemia, 20 µM; with K-562 leukemia it was 59.5 µM; with M14 melanoma, > 100 µM. In addition, the TGI in the experiment on LOX IMVI melanoma, in the experiment on SW-620 colon, in the experiment with ACHN renal, with SF-268 CNS, in the experiment with OVCAR-5 ovarian and in the experiment with SNB-19 CNS was > 100 µM in each case. The TGI is > 100 µM in the experiment with COLO 205 colon, 50 µM in the experiment with MOLT-4 leukemia, > 100 µM in the experiment on K-562 leukemia and > 100 µM in the experiment with M14 melanoma.
Turning to `O=Cc1cc2sc(C=O)cc2s1`, the TGI in the experiment with LOX IMVI melanoma, in the experiment with SW-620 colon, in the experiment with SF-268 CNS, in the experiment on OVCAR-5 ovarian, in the experiment with SNB-19 CNS and in the experiment on COLO 205 colon was > 100 µM each time. For the same molecule, the TGI in the experiment on MOLT-4 leukemia, in the experiment with K-562 leukemia and with M14 melanoma was > 100 µM in each case.
As for `CCN(CC(O)COc1ccc2c(c1)[n+]([O-])nc(N)[n+]2[O-])C(C)=O` (stereo unspecified), the TGI with LOX IMVI melanoma, with SW-620 colon, in the experiment on ACHN renal, in the experiment on SF-268 CNS, in the experiment with OVCAR-5 ovarian and in the experiment on SNB-19 CNS was > 100 µM each time. In addition, the TGI in the experiment on COLO 205 colon, in the experiment with MOLT-4 leukemia, in the experiment with K-562 leukemia and with M14 melanoma was > 100 µM in each case.
On to `O=C(Nc1n[nH]c2cc(-c3ccc(F)cc3)ccc12)C1CC1`, for which the GI50 in the experiment with LOX IMVI melanoma is 10.7 µM; with SW-620 colon it was 7.69 µM; in the experiment on ACHN renal, 16.8 µM; with SF-268 CNS it was 11 µM; with OVCAR-5 ovarian, 14.8 µM; in the experiment with SNB-19 CNS, 12.6 µM. Further, the GI50 in the experiment with COLO 205 colon is 8.12 µM; in the experiment on MOLT-4 leukemia, 10.4 µM; with K-562 leukemia, 3.69 µM; in the experiment with M14 melanoma, 8.6 µM. Further, the TGI in the experiment on LOX IMVI melanoma, with SW-620 colon, in the experiment on ACHN renal, in the experiment with SF-268 CNS, with OVCAR-5 ovarian and in the experiment with SNB-19 CNS was > 25 µM each time. Further, the TGI with COLO 205 colon was > 18.8 µM; in the experiment with MOLT-4 leukemia, > 25 µM; with K-562 leukemia it was > 25 µM; in the experiment on M14 melanoma it was > 25 µM.
Turning to `CC1(/C=C/c2ccc(-c3ccccc3)cc2)CCn2cnc3ncnc(c32)N1O` (stereo unspecified), the GI50 in the experiment on LOX IMVI melanoma was 0.302 µM; in the experiment with SW-620 colon it was 0.529 µM; in the experiment with ACHN renal, 0.281 µM; in the experiment with SF-268 CNS, 0.405 µM; in the experiment with OVCAR-5 ovarian, 0.623 µM; with SNB-19 CNS, 0.526 µM. The GI50 in the experiment on COLO 205 colon was 0.326 µM; in the experiment on MOLT-4 leukemia, 0.347 µM; with K-562 leukemia it was 0.359 µM; in the experiment with M14 melanoma, 0.265 µM. Besides, the TGI in the experiment with LOX IMVI melanoma was 21.6 µM; in the experiment with SW-620 colon it was 24.6 µM; in the experiment with ACHN renal, 14.2 µM; with SF-268 CNS, 15.8 µM; with OVCAR-5 ovarian, 58.7 µM; in the experiment on SNB-19 CNS, > 72.6 µM. The TGI is 32.8 µM in the experiment with COLO 205 colon, 27.9 µM in the experiment with MOLT-4 leukemia, > 66.7 µM in the experiment on K-562 leukemia and 2.49 µM with M14 melanoma.
On to `COc1ccc(-c2oc(C=Nc3ccccc3)c([N+](=O)[O-])c2-c2ccc(OC)c(OC)c2)cc1OC`, for which the TGI with LOX IMVI melanoma, in the experiment on SW-620 colon, in the experiment with ACHN renal, in the experiment on SF-268 CNS, in the experiment with OVCAR-5 ovarian and in the experiment on SNB-19 CNS was > 100 µM throughout. Besides, the TGI in the experiment on COLO 205 colon, in the experiment with MOLT-4 leukemia, in the experiment on K-562 leukemia and in the experiment with M14 melanoma was > 100 µM each time.
In the case of `Nc1cc2c3ccccc3ccc2c2ccccc12`, the GI50 in the experiment with LOX IMVI melanoma was 9.13 µM; with SW-620 colon, > 100 µM; in the experiment on ACHN renal it was > 100 µM; in the experiment on SF-268 CNS it was > 100 µM; in the experiment on OVCAR-5 ovarian, > 100 µM; with SNB-19 CNS, > 100 µM. In addition, the GI50 is > 100 µM in the experiment on COLO 205 colon, > 100 µM with MOLT-4 leukemia, 19.3 µM with K-562 leukemia and > 100 µM in the experiment with M14 melanoma. In addition, the TGI with LOX IMVI melanoma, with SW-620 colon, with ACHN renal, in the experiment with SF-268 CNS, in the experiment on OVCAR-5 ovarian and in the experiment on SNB-19 CNS was > 100 µM each time. Further, the TGI in the experiment with COLO 205 colon, in the experiment with MOLT-4 leukemia, in the experiment on K-562 leukemia and in the experiment with M14 melanoma was > 100 µM throughout.
For `Cc1cc(NCCCCCCCCNc2cc(C)nc3cc(N(C)C)ccc23)c2ccc(N(C)C)cc2n1`, the TGI in the experiment with LOX IMVI melanoma was 8.99 µM; with SW-620 colon it was 87.6 µM; in the experiment on ACHN renal, 32.7 µM; in the experiment with SF-268 CNS, 26.9 µM; with SNB-19 CNS it was 61.6 µM; with COLO 205 colon, 5.5 µM. The TGI in the experiment on MOLT-4 leukemia is > 100 µM; with K-562 leukemia, 28.5 µM; in the experiment on M14 melanoma, 21.4 µM.
Consider `CC1O[C@@H]2CCCCC(=O)[C@]2(C)[C@H]1C` (stereo partly specified), for which the TGI in the experiment with LOX IMVI melanoma, in the experiment with SW-620 colon, in the experiment with ACHN renal, in the experiment on OVCAR-5 ovarian, in the experiment on SNB-19 CNS and in the experiment with COLO 205 colon was > 100 µM in each case. Besides, the TGI in the experiment on MOLT-4 leukemia, in the experiment on K-562 leukemia and in the experiment with M14 melanoma was > 100 µM in each case.
Turning to `CC#CC#C/C=C1/C=CC2(CCCCO2)O1` (stereo unspecified), the TGI in the experiment on LOX IMVI melanoma, in the experiment on SW-620 colon, with SF-268 CNS, in the experiment on OVCAR-5 ovarian, in the experiment with SNB-19 CNS and in the experiment on COLO 205 colon was > 100 µM in each case. Besides, the TGI in the experiment with MOLT-4 leukemia, in the experiment on K-562 leukemia and in the experiment on M14 melanoma was > 100 µM in each case.

Values taken from PubChem BioAssay (NCI).
